Experimental data: patent publication US9085570B2, “Substituted benzamides and their uses” (The Board of Trustees of the Leland Stanford Junior …, priority 2010, dated 2015)
pIC50: −log10 of the molar value.

Test system: RCC4 with VHL-reintroduced (RCC4/VHL)
Test: XTT cell viability assay in RCC4/VHL cells, selectivity ratio versus RCC4
Type: cell-based
Conditions: Ratio = IC50RCC4/VHL/IC50RCC4
Experimental: (§1) Cell Culture. RCC4 parental and RCC4 with VHL-reintroduced (RCC4/VHL), SN12C and SN12C-CSCG-VHL shRNA were maintained in DMEM supplemented with 10% FCS.
(§2) Cell Viability Assays. For 2,3-bis[2-methoxy-4-nitro-5-sulfophenyl]-2H-tetrazolium-5-carboxanilide (XTT) assays, five thousand cells were plated in 96-well plates. The next day, vehicle (DMSO) or drug was added by serial dilution. Four days later, media were aspirated, XTT solution (0.3 mg/ml of XTT (Sigma), […] N-methyl dibenxopyrazine methyl sulfate (Simga) in phenol red-free media) was added, and the plates were incubated at 37° C. for 1-2 hours. Metabolism of XTT was quantified by measuring the absorbance at 450 nm IC50s were calculated using linear interpolation. For clonogenic survival assays, three hundred cells were plated per 60 mm tissue culture dish. The cells were allowed to attach overnight and then treated with vehicle or drug for 14 days. Colonies were fixed and stained with crystal violet (0.1% crystal violet in 95% ethanol). All conditions were measured in triplicate and each experiment was done in duplicate or triplicate. To determine necrosis, cells were treated with drug for a given time point. Media and cells were collected, centrifugated, and resuspended in 0.4% trypan blue (Invitrogen). Live and dead cells were counted on a hematocytometer.
(§3) The designation A reflects an IC50 of <1 nM; B reflects an IC50 ranging from 1 to 20 nM; and C is an IC50 of >20 nM. The designation “a” reflects a ratio of RCC4/RCC-VHL+ranging from 1 to ≦10; “b” reflects from 10 to ≦100; “c” reflects a ratio of >100. Compounds I-29 have an IC50 value of ≦10 μM when tested in the above assay.

Structure (SMILES)	Ratio
O=C(Nc1cccnc1)c1ccc(CNS(=O)(=O)c2cccnc2)cc1 [II-1, N-(3-Pyridinyl)-4-{[(3-pyridylsulfonyl)amino]methyl}benzamide]	a (a ratio of RCC4/RCC-VHL+ranging from 1 to ≦10)
O=C(Nc1cccnc1)c1ccc(CNS(=O)(=O)c2ccc(Oc3ccccc3)nc2)cc1 [II-3, 4-({[(6-Phenoxy-3-pyridinyl)sulfonyl]amino}methyl)-N-(3-pyridinyl)benzamide]	a (a ratio of RCC4/RCC-VHL+ranging from 1 to ≦10)
O=C(Nc1cccnc1)c1ccc(CNS(=O)(=O)c2cccs2)cc1 [II-4, N-(3-Pyridinyl)-4-{[(2-thienylsulfonyl)amino]methyl}benzamide]	a (a ratio of RCC4/RCC-VHL+ranging from 1 to ≦10)
O=C(Nc1cccnc1)c1ccc(CNS(=O)(=O)c2ccsc2)cc1 [II-5, N-(3-Pyridinyl)-4-{[(3-thienylsulfonyl)amino]methyl}benzamide]	a (a ratio of RCC4/RCC-VHL+ranging from 1 to ≦10)

Test system: RCC4
Test: XTT cell viability assay in RCC4 cells (VHL-deficient renal carcinoma)
Type: cell-based
Conditions: Homo sapiens, 96 h, four days drug exposure
Experimental: as §1, §2, §3

pIC50	Structure (SMILES)
< 7.70	O=C(Nc1cccnc1)c1ccc(CNS(=O)(=O)c2ccc(Cl)nc2)cc1 [II-2, 4-({[(6-Chloro-3-pyridinyl)sulfonyl]amino}methyl)-N-(3-pyridinyl)benzamide]
< 7.70	Cc1ncc(S(=O)(=O)NCc2ccc(C(=O)Nc3cccnc3)cc2)n1C [II-6, 4-({[(1,2-Dimethyl-1H-imidazol-5-yl)sulfonyl]amino}methyl)-N-(3-pyridinyl)benzamide]
< 7.70	O=C(Nc1cccnc1)c1ccc(CNS(=O)(=O)c2nnc[nH]2)cc1 [II-7, N-(3-pyridinyl)-4-{[(4H-1,2,4-triazol-3-ylsulfonyl)amino]methyl}benzamide]

Test system: not given
Test: not given
Conditions: not given

Structure (SMILES)	melting point
Cc1ccc(S(=O)(=O)Cc2nc(-c3ccc(C(=O)N(C)c4cccnc4)cc3)oc2C)cc1 [Example 3, N-Methyl-4-(5-methyl-4-{[(4-methylphenyl)sulfonyl]methyl}-1,3-oxazol-2-yl)-N-(3-pyridinyl)benzamide]	195 to 197 °C
Cc1ccc(S(=O)(=O)Cc2nc(-c3ccc(C(=O)NCc4cnccn4)cc3)oc2C)cc1 [Example 9, 4-(5-Methyl-4-{[(4-methylphenyl)sulfonyl]methyl}-1,3-oxazol-2-yl)-N-(2-pyrazinylmethyl)benzamide]	204 to 206 °C
Cc1ccc(S(=O)(=O)Cc2nc(-c3ccc(C(=O)NCc4nccn4C)cc3)oc2C)cc1 [Example 10, N-[(1-Methyl-1H-imidazol-2-yl)methyl]-4-(5-methyl-4-{[(4-methylphenyl)sulfonyl]methyl}-1,3-oxazol-2-yl)benzamide]	190 to 192 °C
COc1ccc(S(=O)(=O)Cc2nc(-c3ccc(C(=O)NCc4cccnc4)cc3)oc2C)cc1 [Example 18, 4-(4-{[(4-Methoxyphenyl)sulfonyl]methyl}-5-methyl-1,3-oxazol-2-yl)-N-(3-pyridinylmethyl)benzamide]	189 to 191 °C
COc1cccc(S(=O)(=O)Cc2nc(-c3ccc(C(=O)NCc4cccnc4)cc3)oc2C)c1 [Example 19, 4-(5-Methyl-4-{[(3-methoxyphenyl)sulfonyl]methyl}-1,3-oxazol-2-yl)-N-(3-pyridinylmethyl)benzamide]	143 to 145 °C
Cc1oc(-c2ccc(C(=O)NCc3cccnc3)cc2)nc1CS(=O)(=O)c1ccc(F)cc1 [Example 22, 4-(4-{[(4-Fluorophenyl)sulfonyl]methyl}-5-methyl-1,3-oxazol-2-yl)-N-(3-pyridinylmethyl)benzamide]	218 to 220 °C
Cc1oc(-c2ccc(C(=O)NCc3cccnc3)cc2)nc1CS(=O)(=O)c1ccc(N2CCOCC2)cc1 [Example 24, 4-[5-Methyl-4-({[4-(4-morpholinyl)phenyl]sulfonyl}methyl)-1,3-oxazol-2-yl]-N-(3-pyridinylmethyl)benzamide]	208 to 210 °C
Cc1ccc(S(=O)(=O)Cc2csc(-c3ccc(C(=O)NCc4cccnc4)cc3)n2)cc1 [Example 25, 4-(4-{[(4-Methylphenyl)sulfonyl]methyl}-1,3-thiazol-2-yl)-N-(3-pyridinylmethyl)benzamide]	178 to 181 °C
O=C(Nc1cccnc1)c1ccc(CNS(=O)(=O)c2ccc(Cl)nc2)cc1 [II-2, 4-({[(6-Chloro-3-pyridinyl)sulfonyl]amino}methyl)-N-(3-pyridinyl)benzamide]	226 to 228 °C

More lines, now with the values ahead:

melting point	Structure (SMILES)
248 to 250 °C	Cc1ccc(S(=O)(=O)Cc2nc(-c3ccc(C(=O)Nc4cccnc4)cc3)oc2C)cc1 [Example 1, 4-(5-Methyl-4-{[(4-methylphenyl)sulfonyl]methyl}-1,3-oxazol-2-yl)-N-(3-pyridinyl)benzamide]
229 to 231 °C	Cc1ccc(S(=O)(=O)Cc2nc(-c3ccc(C(=O)Nc4ccncc4)cc3)oc2C)cc1 [Example 2, 4-(5-Methyl-4-{[(4-methylphenyl)sulfonyl]methyl}-1,3-oxazol-2-yl)-N-(4-pyridinyl)benzamide]
154 to 155 °C	Cc1ccc(S(=O)(=O)Cc2nc(-c3ccc(C(=O)NCc4ccccn4)cc3)oc2C)cc1 [Example 4, 4-(5-Methyl-4-{[(4-methylphenyl)sulfonyl]methyl}-1,3-oxazol-2-yl)-N-(2-pyridinylmethyl)benzamide]
169 to 172 °C	Cc1ccc(S(=O)(=O)Cc2nc(-c3ccc(C(=O)NCc4ccncc4)cc3)oc2C)cc1 [Example 6, 4-(5-Methyl-4-{[(4-methylphenyl)sulfonyl]methyl}-1,3-oxazol-2-yl)-N-(4-pyridinylmethyl)benzamide]
77 to 80 °C	Cc1ccc(S(=O)(=O)Cc2nc(-c3ccc(C(=O)N(C)Cc4cccnc4)cc3)oc2C)cc1 [Example 7, N-Methyl-4-(5-methyl-4-{[(4-methylphenyl)sulfonyl]methyl}-1,3-oxazol-2-yl)-N-(3-pyridinylmethyl)benzamide]
207 to 208 °C	Cc1ccc(S(=O)(=O)Cc2nc(-c3ccc(C(=O)NCCc4cccnc4)cc3)oc2C)cc1 [Example 8, 4-(5-Methyl-4-{[(4-methylphenyl)sulfonyl]methyl}-1,3-oxazol-2-yl)-N-[2-(3-pyridinyl)ethyl]benzamide]
240 to 242 °C	Cc1ccc(S(=O)(=O)Cc2nc(-c3ccc(C(=O)NCc4cncn4C)cc3)oc2C)cc1 [Example 11, N-[(1-Methyl-1H-imidazol-5-yl)methyl]-4-(5-methyl-4-{[(4-methylphenyl)sulfonyl]methyl}-1,3-oxazol-2-yl)benzamide]
196 to 198 °C	Cc1oc(-c2ccc(C(=O)NCc3cccnc3)cc2)nc1CS(=O)(=O)c1ccccc1 [Example 12, 4-{5-Methyl-4-[(phenylsulfonyl)methyl]-1,3-oxazol-2-yl}-N-(3-pyridinylmethyl)benzamide]
220 to 222 °C	Cc1oc(-c2ccc(C(=O)NCc3cccnc3)cc2)nc1CS(=O)(=O)c1ccc(Cl)cc1 [Example 13, 4-(4-{[(4-Chlorophenyl)sulfonyl]methyl}-5-methyl-1,3-oxazol-2-yl)-N-(3-pyridinylmethyl)benzamide]
177 to 180 °C	Cc1oc(-c2ccc(C(=O)NCc3cccnc3)cc2)nc1CS(=O)(=O)c1ccc(C(C)(C)C)cc1 [Example 14, 4-(4-{[(4-tert-Butylphenyl)sulfonyl]methyl}-5-methyl-1,3-oxazol-2-yl)-N-(3-pyridinylmethyl)benzamide]
188 to 190 °C	Cc1cc(C)cc(S(=O)(=O)Cc2nc(-c3ccc(C(=O)NCc4cccnc4)cc3)oc2C)c1 [Example 15, 4-(4-{[(3,5-Dimethylphenyl)sulfonyl]methyl}-5-methyl-1,3-oxazol-2-yl)-N-(3-pyridinylmethyl)benzamide]
224 to 227 °C	Cc1oc(-c2ccc(C(=O)NCc3cccnc3)cc2)nc1CS(=O)(=O)c1ccc(Br)cc1 [Example 16, 4-(4-{[(4-Bromophenyl)sulfonyl]methyl}-5-methyl-1,3-oxazol-2-yl)-N-(3-pyridinylmethyl)benzamide]
179 to 181 °C	Cc1cccc(S(=O)(=O)Cc2nc(-c3ccc(C(=O)NCc4cccnc4)cc3)oc2C)c1 [Example 17, 4-(5-Methyl-4-{[(3-methylphenyl)sulfonyl]methyl}-1,3-oxazol-2-yl)-N-(3-pyridinylmethyl)benzamide]
104 to 108 °C	COc1ccc(S(=O)(=O)Cc2nc(-c3ccc(C(=O)NCc4cccnc4)cc3)oc2C)cc1OC [Example 20, 4-(4-{[(3,4-Dimethoxyphenyl)sulfonyl]methyl}-5-methyl-1,3-oxazol-2-yl)-N-(3-pyridinylmethyl)benzamide]
210 to 215 °C	Cc1oc(-c2ccc(C(=O)NCc3cccnc3)cc2)nc1CS(=O)(=O)c1ccc(N2CCN(C)CC2)cc1 [Example 23, 4-[5-Methyl-4-({[4-(4-methyl-1-piperazinyl)phenyl]sulfonyl}methyl)-1,3-oxazol-2-yl]-N-(3-pyridinylmethyl)benzamide]
234 to 237 °C	Cc1oc(-c2ccc(C(=O)NCc3ccccc3)cc2)nc1CS(=O)(=O)c1ccc(Br)cc1 [Example 27, N-Benzyl-4-(4-{[(4-bromophenyl)sulfonyl]methyl}-5-methyl-1,3-oxazol-2-yl)benzamide]
238 to 240 °C	Cc1ncc(S(=O)(=O)NCc2ccc(C(=O)Nc3cccnc3)cc2)n1C [II-6, 4-({[(1,2-Dimethyl-1H-imidazol-5-yl)sulfonyl]amino}methyl)-N-(3-pyridinyl)benzamide]
266 to 269 °C	O=C(Nc1cccnc1)c1ccc(CNS(=O)(=O)c2nnc[nH]2)cc1 [II-7, N-(3-pyridinyl)-4-{[(4H-1,2,4-triazol-3-ylsulfonyl)amino]methyl}benzamide]
